{"source": "patent US4618681A", "about": "“Aryl substituted 1H-4,5-dihydro-1,2,3-triazoles as anticonvulsants” (priority 1984, dated 1986)", "key": {"[1]": {"assay": "Maximal electroshock seizure (MES) pattern test in rats", "type": "in vivo, rats (male albino, Sprague Dawley)", "method": "(§1) All animals were allowed free access to both food (S/L Custom Lab Diet-7) and water, except when they were removed from their cages for the experimental procedure.\n(§2) The drugs were administered either orally or intraperitoneally in a volume of 0.01 ml/g body weight in mice and 0.04 ml/10 g in rats. All tests were conducted at the previously determined time of peak drug effect.\n(§3) The profile of anticonvulsant activity for each substance was established by five tests: one electrical and four chemical. The electrical test employed was the maximal electroshock seizure pattern test. […] Except for the sc Strych Test, these tests measure the ability of anticonvulsants to afford complete protection against threshold seizures induced by the subcutaneous injection of the CD97 of the convulsant agent."}, "[2]": {"assay": "Subcutaneous Metrazol Seizure Threshold Test (sc Met) in rats", "type": "in vivo, rats (male albino, Sprague Dawley)", "method": "as §2, §3\n(§4) All convulsants were administered subcutaneously into a loose fold of skin on the back of the neck in a volume of 0.01 ml/g body weight in mice; Metrazol was injected in a volume of 0.02 ml/10 g body weight in rats. The convulsant drugs were administered at the previously determined time of peak anticonvulsant action of the drug under study. […] Except for strychnine, absence of a five-second episode of clonic spasms (threshold seizure) was taken as protection. In the case of strychnine, complete abolition of the hindleg tonic extension was taken as protection."}, "[3]": {"type": "in vivo", "conditions": "Phase V, mice, i.p.", "method": "as §3, §4"}, "in vivo [4]": {"assay": "in vivo", "set-up": "species or system mice", "conditions": "mouse, in vivo, ip", "method": "(§5) The profile of toxicity for each test drug was established by the following procedures: firstly, the minimal neurotoxic dose (TD50) was determined by the rotorod procedure at the time of peak neurotoxic effect. When a normal mouse is placed on a knurled rod one inch in diameter rotating at a speed of six rpm it can maintain its equilibrium for long periods of time. Neurological deficit is indicated by inability of the mouse to maintain its equilibrium for one minute in each of three trials on this rotating rod. Neurological deficit in rats is indicated by ataxia, loss of placing response and muscle tone. […] These observations also provide preliminary information essential for the subsequent determination of the HD50 and LD50. The HD50 represents the median dose at which 50% of animals lose their righting reflex."}, "in vivo [5]": {"assay": "in vivo", "conditions": "mouse, in vivo; for selectivity ratio: mice, i.p.", "method": "as §5"}, "[6]": {"assay": "Phase III Toxicity Profile in mice i.p. (overt signs of toxicity)", "type": "in vivo", "text": "[…]. […] […]. […] […]."}, "[7]": {"set-up": "species or system mice", "conditions": "mouse, in vivo, ip, 1132 mg/kg", "description": "Consequently, it was necessary to administer the high doses required for the righting reflex and 24-hour lethality tests in mice in double the volume. In view of this fact, additional studies were done to determine the effect of this double volume on the time of peak effect of the test substance. […] […]. Moreover, 1, 3, and 4 of the 8 mice were dead at 20, 40, and 46 hours, respectively. […] Accordingly, additional pharmacokinetic and pharmacodynamic studies will be done in order to reveal mechanisms that may contribute to the long TPE for neurotoxicity and the abnormally low ratio between the minimal-toxic dose and the 24-hour lethal dose."}, "[8]": {"assay": "Oral absorption in mice (oral/i.p. ratios)", "type": "in vivo", "text": "The extent of oral absorption can be determined from the ratio of the oral ED50/i.p. […] In mice the oral TD50/i.p. TD50 and oral ED50/i.p."}, "[9]": {"conditions": "mouse, in vivo", "method": "as §1, §2, §3, §4"}, "[10]": {"assay": "not given", "remark": "listed apart in the source"}, "[11]": {"assay": "not given", "remark": "listed apart in the source"}, "[12]": {"conditions": "mouse, in vivo", "remark": "listed apart in the source", "method": "as §2, §5"}, "[13]": {"assay": "not given", "remark": "listed apart in the source"}, "in vivo [14]": {"assay": "in vivo", "conditions": "mouse", "method": "as §2, §5"}, "in vivo [15]": {"assay": "in vivo", "conditions": "rat, po", "method": "as §2, §5"}, "[16]": {"assay": "Time of peak effect (TPE) over several tests in mice", "method": "as §2"}, "[17]": {"assay": "Time of peak effect (TPE) over several tests in rats", "conditions": "p.o., Compound 9: toxicity, MES and sc Met tests", "method": "as §2"}, "[18]": {"assay": "Phase I anticonvulsant screening (MES and scMet tests)", "conditions": "in words"}, "[19]": {"assay": "Subcutaneous Metrazol Seizure Threshold Test (sc Met) in mice", "conditions": "for ED50: Mus musculus", "method": "as §1, §2, §3, §4"}, "[20]": {"conditions": "300 mg/kg, four hours after administration"}, "[21]": {"conditions": "mice, i.p., from safety ratio TD3/ED97"}}, "note": "“Also recorded” adds a separate entry of the source. Like-named read-outs stand apart in the source and are kept apart here."}
{"smiles": "Clc1ccc(N2N=NCC2c2ccncc2)cc1", "note": "(stereo not drawn) [Compound 9, 1-(p-Chlorophenyl)-5-(4-pyridyl)-Δ^2-1,2,3-triazoline]", "values": [{"measurement": "ED50", "setting": "[1]; Rattus norvegicus, po, rats", "value": 266, "unit": "mg/kg"}, {"measurement": "anticonvulsant potency by MES, rats compared with mice", "setting": "[1]; oral administration", "value": "no significant difference in the anticonvulsant potency"}, {"measurement": "97% protection in nontoxic doses, MES", "setting": "[1]; rats, p.o.", "value": "do not provide 97% protection"}, {"measurement": "ED50", "setting": "[2]; Rattus norvegicus, po, rats, p.o., read-out: ED50 sc Met", "value": 278, "unit": "mg/kg"}, {"measurement": "anticonvulsant potency by sc Met, rats compared with mice", "setting": "[2]; oral administration", "value": "no significant difference in the anticonvulsant potency"}, {"measurement": "97% protection in nontoxic doses, sc Met", "setting": "[2]; rats, p.o.", "value": "do not provide 97% protection"}, {"measurement": "effectiveness by the sc Strych test", "setting": "[3]", "value": "not effective against sc Strych; also recorded: ineffective after i.p. administration in mice by the sc Strych test"}, {"measurement": "Slope, regression line, HD50 (righting reflex)", "setting": "in vivo [4]", "value": 4.27}, {"measurement": "TD50", "setting": "in vivo [4]", "value": 2050, "unit": "mg/kg"}, {"measurement": "Time of Test / time of peak toxicity, righting reflex", "setting": "in vivo [4]", "value": 24, "unit": "h"}, {"measurement": "selectivity (slope of regression line), 24-hour lethality", "setting": "in vivo [5]", "value": "lack of selectivity (flat regression lines)"}, {"measurement": "margin between the minimal toxic dose and the 24-hour lethal dose", "setting": "in vivo [5]; ip", "value": "probably not satisfactory"}, {"measurement": "selectivity ratio", "setting": "in vivo [5]; ip, 24-hour LD50, rotorod TD50, read-out: Ratio LD50/TD50", "value": 1.88}, {"measurement": "selectivity ratio", "setting": "in vivo [5]; ip, 24-hour LD50, read-out: Ratio LD50/HD50", "value": 1.04}, {"measurement": "LD50 at 24 h", "setting": "in vivo [5]; ip, read-out: LD50 (lethality)", "value": 2130, "unit": "mg/kg"}, {"measurement": "toxicity profile", "setting": "[6]; mice, i.p., 1TD50, 2TD50's and 4TD50's", "value": "decreased motor activity, ataxia, decreased respiration and cyanosis"}, {"measurement": "toxicity at the end of 24 hours", "setting": "[6]; mice, i.p., 2TD50's", "value": "One of two animals given 2TD50's was still ataxic and cyanotic at the end of 24 hours"}, {"measurement": "dead 24 hours after drug administration", "setting": "[6]; mice, i.p., 4TD50's", "value": "Both mice given 4TD50's of Compound 9 were dead 24 hours after drug administration"}, {"measurement": "rotorod toxicity", "setting": "[6]; mouse, in vivo, ip", "value": "one of two animals given 4TD50's displayed rotorod toxicity"}, {"measurement": "gross examination of the peritoneal cavity", "setting": "[7]", "value": "an unevacuated stomach that was approximately three times normal size; an empty, flaccid small intestine; and a vermiform appendix markedly enlarged from flatus"}, {"measurement": "absorption after oral administration", "setting": "[8]", "value": "adequately absorbed in mice after oral administration"}, {"measurement": "activity by the MES test", "setting": "[20]", "value": "ineffective by the MES test (although the tonic extension was slow)"}, {"measurement": "ED50 MES", "setting": "mice, i.p.", "value": 257.42, "unit": "mg/kg"}, {"measurement": "Protective Index (P.I.) = TD50/ED50, MES", "setting": "mice, i.p.", "value": 4.40}, {"measurement": "Time of Test / time of peak effect (TPE), MES", "setting": "mice, i.p.", "value": "1/2"}, {"measurement": "mice protected, MES, nontoxic doses", "setting": "[21]", "value": 97, "unit": "%"}, {"measurement": "ED50 MES", "setting": "mice, p.o.", "value": 290.72, "unit": "mg/kg"}, {"measurement": "potency relative to phenobarbital, MES", "setting": "mice, p.o.", "value": "1/15"}, {"measurement": "potency relative to phenytoin, MES", "setting": "mice, p.o.", "value": "1/32"}, {"measurement": "97% protection in nontoxic doses, oral", "setting": "mice, p.o., MES", "value": "the same level of protection is obtained only in mice subjected to the MES test"}, {"measurement": "oral ED50/i.p. ED50, MES", "setting": "mouse, in vivo", "value": 1.13}, {"measurement": "safety ratio TD3/ED97, MES", "setting": "mouse, in vivo", "value": 1.13}, {"measurement": "P.I. by the MES test", "setting": "mouse, in vivo, po", "value": 2.42}, {"measurement": "profile of anticonvulsant activity, electroshock", "setting": "nontoxic doses", "value": "ability to modify maximal electroshock seizure pattern"}, {"measurement": "oral ED50/i.p. ED50, sc Met", "setting": "[9]", "value": 3.50}, {"measurement": "P.I. by the scMet test", "setting": "[9]; po", "value": 4.62}, {"measurement": "P.I. derived from the sc Met test", "setting": "[9]; sc", "value": "high"}, {"measurement": "P.I. against sc Bic, times higher than that for phenobarbital", "setting": "[10]; Phase V, mice, i.p.", "value": "fifty"}, {"measurement": "effectiveness by the sc Bic test", "setting": "[10]; Phase V, mice, i.p.", "value": "effective against sc Met, sc Bic, and sc Pic in nontoxic doses"}, {"measurement": "P.I. derived from the sc Bic test", "setting": "[10]; in words", "value": "high"}, {"measurement": "P.I. by the sc Pic test compared with phenobarbital, ethosuximide and valproate", "setting": "[11]; Phase V, mice, i.p.", "value": "compares favorably with those for phenobarbital, ethosuximide, and valproate"}, {"measurement": "effectiveness by the sc Pic test", "setting": "[11]; Phase V, mice, i.p.", "value": "lesser effectiveness by the sc Pic test"}, {"measurement": "selectivity (slope of regression line), sc Pic test", "setting": "[11]; in words", "value": "lack of selectivity (flat regression lines)"}, {"measurement": "TPE (rotorod)", "setting": "[12]; ip", "value": "12 and 20"}, {"measurement": "TPE by the rotorod test", "setting": "[12]; po", "value": 24, "unit": "h"}, {"measurement": "deaths", "setting": "[12]; po, 600 mg/kg", "value": "1 of 8"}, {"measurement": "deaths (of 8)", "setting": "[12]; po, 700 mg/kg", "value": 6}, {"measurement": "deaths", "setting": "[12]; po, 800 mg/kg", "value": "1 of 8"}, {"measurement": "deaths", "setting": "[12]; po, 1000 mg/kg", "value": "4 of 8"}, {"measurement": "neurotoxicity, rats compared with mice", "setting": "[13]; rat, in vivo, po", "value": "significantly more neurotoxic in rats than it is in mice"}, {"measurement": "toxicity relative to phenobarbital", "setting": "[13]; rats, p.o.", "value": "one-fifth to one-sixth"}, {"measurement": "selectivity ratio", "setting": "in vivo [14]", "value": 0.62}, {"measurement": "TD50", "setting": "in vivo [14]; ip", "value": 1130, "unit": "mg/kg"}, {"measurement": "TD50", "setting": "in vivo [14]; po", "value": 705, "unit": "mg/kg"}, {"measurement": "TD50", "setting": "in vivo [15]", "value": 394, "unit": "mg/kg"}, {"measurement": "TPE by the anticonvulsant tests", "setting": "[16]; p.o.", "value": "one-half"}, {"measurement": "TPE after oral compared with intraperitoneal administration", "setting": "[16]; p.o. vs i.p.", "value": "significantly different from that obtained after intraperitoneal administration"}, {"measurement": "TPE", "setting": "[17]", "value": "six"}, {"measurement": "anticonvulsant potency", "setting": "[18]", "value": "most potent"}, {"measurement": "anti-Metrazol activity", "setting": "[19]; [20]", "value": "anti-Metrazol activity was present"}, {"measurement": "ED50", "setting": "[19]; ip, read-out: ED50 sc Met", "value": 43.5, "unit": "mg/kg"}, {"measurement": "ED50", "setting": "[19]; po, read-out: ED50 scMet", "value": 153, "unit": "mg/kg"}, {"measurement": "effectiveness by the sc Met test", "setting": "[19]; Phase V, mice, i.p.", "value": "effective against sc Met, sc Bic, and sc Pic in nontoxic doses"}, {"measurement": "safety ratio TD3/ED97, sc Met", "setting": "[19]; mice", "value": 3.44}, {"measurement": "Protective Index (P.I.) = TD50/ED50, sc Met", "setting": "[19]; mice, i.p.", "value": 26.02}, {"measurement": "Time of Test / time of peak effect (TPE), sc Met", "setting": "[19]; mice, i.p.", "value": "1/2"}, {"measurement": "mice protected, sc Met, nontoxic doses", "setting": "[19]; [21]", "value": 97, "unit": "%"}, {"measurement": "24-hour LD50/ED50 safety ratio by the sc Met test", "setting": "[19]; mice, in words", "value": "high"}, {"measurement": "profile of anticonvulsant activity, Metrazol", "setting": "[19]; nontoxic doses", "value": "elevate the Metrazol seizure threshold in nontoxic doses"}]}
